Common to all, as to type: cell-based, rat
Assay [1] relates to AEC-I monolayers. The assay can be described thus: Monolayer permeability, FITC-labeled streptavidin binding to biotin. Conditions: stretched monolayers (25%, 6 hrs), 1 μM PI pretreatment 18 hours. From the text:
To obtain monolayer rat type-II alveolar epithelial cells (AEC-II), cells were isolated from Sprague-Dawley rats (250-300 g, N=30 purchased from Charles River Laboratories, Wilmington, Mass.) described by Tschumperlin D J, Margulies SS. Equibiaxial deformation-induced injury of alveolar epithelial cells in vitro. Am J Physiol. 1998; 275(6 Pt 1):L1173-83. Epub 1998/12/09 (PubMed PMID: 9843855), with modifications. Briefly, animals were killed and the lungs were harvested. The lung tissue was digested with elastase at 37° C. and distal airways were isolated. Following, cells were placed on rat IgG coated containing no serum for 90 minutes to eliminate contaminating leukocytes and parenchymal cells. This isolation method yielded approximately 95% pure alveolar epithelial cell population. 1.3 million cells were plated on 1 cm diameter fibronectin-coated custom made silastic membranes. In permeability studies, biotin were mixed with fibronectin and membranes were pretreated with oxygen plasma coating to ensure homogenous distribution of the fibronectin. Cells were cultured with 10% fetal bovine serum (FBS)-containing Minimal Essential Medium (MEM) containing low dose antibiotics for 3 days. 32 to 40 monolayers were per rat. On the 3rd day, matured monolayers were randomized to be exposed to one of the treatments for 24 hours (N=3 monolayers/treatment): • A. RNAiMax transfection reagent treatment using serum free media (Opti-MEM, Thermo Fisher Scientific, Waltham, Mass.). This is a negative control for siRNA experiments where serum free media is used for improved transfection efficiency; • B. non-targeting siRNA treatment ([…], Dharmacon) serves a negative control for transfection; • C. […]
The dose of siRNA and PI treatment was selected based on dose-response curves above (FIG. 2A-FIG. 2E). […] All membranes were treated with FITC-labeled streptavidin (Thermo Fisher Scientific) at the end of the experiment and light emission was detected at 488 nm with fluorescent microscopy (Nikon TE300, Melville, N.Y.). […]

For assay [2], the system named is AEC-I monolayers. The assay is described as follows: Cytokine levels in culture supernatant, multiplex bead assay. Conditions: stretched monolayers, PI treatment. As for the experimental part: Given the interest in cytokines as a biomarker of injury, the contribution of ISR signaling to stretch-induced proinflammatory mediator release was assessed by measuring the level of 26 common cytokines in the culture media in the presence and absence of PI. Generally low cytokine response to stretch was found with modest elevations in IL-18, IL-1α and MIP-1α (FIG. 4A-FIG. 4C). […] (FIG. 4A). To study the regulation of IL-18 by ISR, stretched and unstretched cells were treated with CHOP, ATF4 and PERK siRNA (FIG. 17A-FIG. 17B and FIG. 4D-FIG. 4F). […] Cell culture media IL-18 levels were compared to no siRNA and non-targeting siRNA treatments.
Culture media of stretched and unstretched AEC-I monolayers was collected at the end of the experiment. N=5 biological monolayer replicates were used per condition. 0.5 ml samples were concentrated to 30 μl using centrifugal filters (Amicon Ultra, EMD Millipore). Levels of 26 common cytokines and chemokines were measured with RECYTMAG-65K MILLIPLEX MAP Rat Cytokine Chemokine Magnetic Bead Panel multiplex bead assay (EMD Millipore Corp., Billerica, Mass.) in triplicates per the manufacturer's protocol. 25 μl samples were used. The following analytes were measured: epidermal growth factor (EGF), eotaxin, macrophage colony stimulating factor […], interleukin (IL)-1α, 2,4,5,6,10,12 (p70), 13, 17A, 18; granulocyte-macrophage colony stimulating factor (GM-CSF), regulated on activation, normal T cell expressed and secreted (RANTES), vascular […] growth factor (VEGF), fractalkine, interferon-γ (INFγ), interferon-γ-inducible protein 10 (IP-10), leptin, tumor necrosis factor-α (TNF-α), keratinocyte chemoattractant (GRO/KC), macrophage inflammatory protein (MIP)-1α and 2, monocyte chemoattractant protein (MCP-1), and LPS-induced chemokine (LIX). Samples were read in triplicates and an averaged value was obtained.

Assay [3] deals with tight junction proteins (CLDN4, CLDN18) bound to ZO-1 in AEC-I monolayers. The assay can be described thus: Co-immunoprecipitation of tight junction proteins with ZO-1 as bait. Conditions: stretched monolayers (25%, 6 hours), PI pretreatment. As for the experimental part: The dose of siRNA and PI treatment was selected based on dose-response curves above (FIG. 2A-FIG. 2E). AEC-II transformed to AEC-I cells and formed a complete monolayer by day 4, expressing only AEC-I cell surface markers. On the day of the experiment, the medium was removed and replaced with HEPES-buffered MEM. Cells stretch was performed in a 37° C. incubator. The effect of ISR inhibition or control treatment was compared in the following three conditions (N=5 biological replicates/condition): 1) no stretch (NS) controls; 2) mechanical stretch with 12% surface change (S 12%); and 3) mechanical stretch with 25% surface change (S25%). The cell monolayers were exposed to the above mentioned conditions for 6 hours based on time course of ISR protein expression obtained during preliminary data collection (FIG. 2A-FIG. 2E). All membranes were treated with FITC-labeled streptavidin (Thermo Fisher Scientific) at the end of the experiment and light emission was detected at 488 nm with fluorescent microscopy (Nikon TE300, Melville, N.Y.). In a separate set of experiments (N=30 rats), in which the above mentioned treatment plan and conditions were used, cells were harvested at the end of the experiment by scraping them in RIPA buffer and total protein was extracted (N=3 membranes/treatment group performed for N=5 biological replicates per condition). […]

The structures appear in SMILES notation.

Consider `Cn1cc(-c2ccc3c(c2)CCN3C(=O)Cc2cccc(C(F)(F)F)c2)c2c(N)ncnc21` [PI, 1-[5-(4-Amino-7-methyl-7H-pyrrolo[2,3-d]pyrimidin-5-yl)indolin-1-yl]-2-(3-trifluoromethylphenyl)ethanone], for which the monolayer permeability result with AEC-I monolayers [1] is given as “significantly reduced”. In the assay with AEC-I monolayers [2], the “IL-1α level in supernatant” value is reported as “did not affect”, the “IL-18 level in supernatant” value is listed as “decreased” and the “MIP-1α level in supernatant” value is on record as “did not affect”. Moreover, in assay [3], the “dissociation of CLDN 4 from ZO-1” value is “prevented” and the “dissociation of CLDN 18 from ZO-1” value was “prevented”.
